Source: patent US4594238A (Regents of University of Minnesota, priority 1984, dated 1986)

Columns and labels:
[1] = cited from earlier work; for Bone marrow toxicity: in vivo
[2] = Urinary excretion of free and conjugated DDTC; format: in vivo, rats; settings: combination of DDTC and acetazolamide, even when NaDDTC dose reduced by 80%
Source text: Intravenous administration was explored in an attempt to deliver larger quantities of free DDTC anion to the likely site of toxicity in the renal tubule; urinary excretion of DDTC was monitored as a means of estimating changes in tubular levels of free DDTC. The standard assay for DDTC anion utilizes a spectrophotometric determination following reaction with cupric ion to form the colored Cu(DDTC)2 complex. Unfortunately, the affinity of cupric ion for sulfur ligands is such that this metal ion will catalyze the decomposition of the DDTC glucuronide and therefore will not discriminate between free and conjugated DDTC. Ferric ion does react selectively with the free ligand, thereby providing a convenient assay for both free and total DDTC in urine.
Excretion of free and conjugated NaDDTC in the urine of rats was measured as follows. NaDDTC was administered in selected doses via intraperitoneal or intravenous injection. Rats were then placed in metabolic cages and urine was collected and analyzed at 30 minute intervals. Urine samples (0.1-5.0 ml) were added to 2 ml of a solution containing ferric nitrate (20 mM) and sodium citrate (200 mM). The dark Fe (DDTC)3 complex was extracted into chloroform (4 ml) by vortexing for 5 minutes. The mixture was chilled, centrifuged for 1 minute, and the chloroform layer separated. To this chloroform solution was added saturated aqueous cupric sulfate (2 ml), and the mixture was vortexed for 5 minutes, chilled, and centrifuged for 1 minute. The chloroform solution was separated and the Cu(DDTC)2absorbance measured at 435 nm. Free DDTC was determined by comparison of absorbance to a standard curve. Total DDTC was determined by addition of 0. 05-1.0 ml of urine to 3 ml of saturated cupric sulfate followed by incubation at 45° for 30 minutes. The resulting Cu(DDTC)2 complex was extracted into chloroform and analyzed as described above. DDTC-glucuronide excretion was determined by subtraction of free from total DDTC.

[3] = cited from earlier work; for Benefit when given before platinum(II): given before the platinum (II); for Binding to plasma platinum: in vivo
[4] = polar solvents; cited from earlier work
[5] = Protection of rats against DDP toxicity by disulfiram via stomach tube, Example 1; format: in vivo, Male F344 (Fischer) rats; settings: disulfiram 2 g/kg via stomach tube 30 minutes before and 30 minutes after DDP
Procedure: Male F344 (Fischer) rats (average weight, 150 g) were obtained from the Charles River Breeding Laboratory. They were divided into groups of four rats, placed in methacrylate cages, and given National Institute of Health chow for rodents and water ad lib, for 7 days. Average weight of the rats was 180 g (range, 160-200 g) when injected.
Tetraethylthiuram disulfide (disulfiram) was obtained from Sigma Chemical Co., St. Louis MO. Sodium DDTC was prepared according to the procedure of Klopper and van der Kerk, Rec. Trav. Chim. 70:917 (1951); immediately prior to injection, it was dissolved in sterile water at a concentration of 100 mg/ml. Sodium bicarbonate was prepared in sterile water at a concentration of 50 mg/ml. All injections were carried out under brief ether anesthesia.
Otherwise, weight and BUN were determined at 5 days after injection, reportedly the time of maximal observed toxicity. Evidence of gastrointestinal toxicity was obtained qualitatively by noting the presence or absence of diarrhea 3-5 days after injection.
Disulfiram was administered to two groups of rats in lieu of NaDDTC, as described subsequently.

## N.N.O=C([O-])C1(C(=O)[O-])CCC1.[Pt+2] [CBDCA]
[1]
  Bone marrow toxicity: increased bone marrow toxicity

## NCC1(CN)CCCCC1.O=S(=O)([O-])[O-].[Pt+2] [TNO-6]
[1]
  Bone marrow toxicity: increased bone marrow toxicity

## CC(=O)Nc1nnc(S(N)(=O)=O)s1 [acetazolamide, reference compound]
[2]
  Renal excretion of DDTC with acetazolamide: significant increases in renal excretion of DDTC

## N[C@@H](CS)C(=O)O [cysteine]
[3]
  Benefit when given before platinum(II): Some benefit was reported
  Binding to plasma platinum: may have the potential to bind to plasma platinum

## CCN(CC)C(=S)SSC(=S)N(CC)CC [disulfiram, Tetraethylthiuram disulfide]
[4]
  Solubility in polar solvents: relatively low solubility, particularly in polar solvents
[5]
  BUN in survivors: 55 to 180 mg/dL
  Necropsy, intestine: grossly hemorrhagic fluid-filled intestine
  Weight loss and BUN levels in the survivors: highly variable
[5]; in each group
  Animals that died before day 5: Fifty

## CC(C)(S)[C@@H](N)C(=O)O [penicillamine]
[3]
  Benefit when given before platinum(II): Some benefit was reported
  Binding to plasma platinum: may have the potential to bind to plasma platinum

## chlorohydroxy-isopropylamineplatinum [CHIP]
[1]; compared to first generation agents
  Kidney toxicity: low in kidney toxicity
[1]
  Bone marrow toxicity: high in bone marrow toxicity
